Measurements as given in US20070032477A1, “Pteridine derivatives useful for making pharmaceutical compositions” (priority 2003, published 2007).

Tests used:
[1] = test system: mixed lymphocyte reaction (PBMC with allogeneic PBMC or Eppstein-Barr Virus-transformed human B cells as stimulator cells); assay: Mixed lymphocyte reaction (MLR) assay; type: cell-based; settings: lowest concentration giving 50% suppression of the MLR; [3H]-thymidine
[2] = test system: production of TNF-α by PBMC in response to stimulation by LPS; assay: TNF-α assay; type: cell-based, human; settings: LPS 1 μg/ml, 72 hours, sandwich ELISA
Outline: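 Cells were LPS-stimulated (1 μg/ml final) peripheral blood mononuclear cells at 10^6/ml, exposed 72 h at 37 °C to 0.1, 1 or 10 μM test compound.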

[3] = test system: production of IL-1 β by PBMC in response to stimulation by LPS; assay: IL-1 β assay; type: cell-based, human; settings: LPS 1 μg/ml, 72 hours, sandwich ELISA
Experimental: Peripheral blood mononuclear cells (herein referred as PBMC), in response to stimulation by lipopolysaccharide (LPS), a gram-negative bacterial endotoxin, produce various […], in particular human IL-1 β. Inhibition of the activation of PBMC can therefore be measured by the level of suppression of the production of IL-1 β by PBMC in response to stimulation by LPS.
Such inhibition measurement was performed as follows: PBMC were isolated from heparinized peripheral blood by density gradient centrifugation over Lymphoprep (commercially available from Nycomed, Norway). LPS was then added to the PMBC suspension in complete medium (10^6 cells/ml) at a final concentration of 1 μg/ml. The pteridine derivative to be tested was added at different concentrations (0.1 μM, 1 μM and 10 μM) and the cells were incubated at 37° C. for 72 hours in 5% CO2. The supernatants were collected, then IL-1 β concentrations were measured with an anti-IL-1 β antibody in a sandwich ELISA. The calorimetric reading of the ELISA was measured by a Multiskan RC plate reader (commercially available from ThermoLabsystems, Finland) at 450 nm (reference wavelength: 690 nm). Data analysis was performed with Ascent software 2.6. (also from ThermoLabsystems, Finland): a standard curve (recombinant human IL-1 β) was drawn and the amount (pg/ml) of each sample on the standard curve was determined.
The % suppression of human IL-1 β by the pteridine derivatives (drugs) of this invention was calculated using the formula: [formula]

Compound	IC50 [1]	IC50 [2]	IC50 [3]
COc1ccc(-c2cnc3nc(N)nc(N4CCN(C(=O)OCC(C)C)CC4)c3n2)cc1OC [Example 95, 2-amino-4-[N-isobutoxy-carbonyl-piperazin-1-yl]-6-(3,4-dimethoxyphenyl)pteridine]	0.12 µM	0.1 µM	1 µM
COc1ccc(-c2cnc3nc(N)nc(N4CCN(c5ccc(Cl)cc5)CC4)c3n2)cc1OC [Example 162, 2-amino-4-((4-chlorophenyl)-piperazin-1-yl)-6-(3,4-dimethoxyphenyl)pteridine]	0.8 µM	0.4 µM	3.8 µM
COc1ccc(-c2cnc3nc(N)nc(N4CCN(c5ccccc5)CC4)c3n2)cc1OC [Example 64, 2-amino-4-(N-phenylpiperazin-1-yl)-6-(3,4-dimethoxyphenyl)pteridine]	0.4 µM	0.05 µM	4.4 µM
COc1ccc(N2CCN(c3nc(N)nc4ncc(-c5ccc(OC)c(OC)c5)nc34)CC2)cc1 [Example 161, 2-amino-4-((4-methoxyphenyl)-piperazin-1-yl)-6-(3,4-dimethoxyphenyl)pteridine]	0.4 µM	0.06 µM	3.2 µM
COc1ccc(-c2cnc3nc(N)nc(N4CCN(CC5CCCCC5)CC4)c3n2)cc1OC [Example 123]	3.9 µM	0.8 µM	4.2 µM
COc1ccc(-c2cnc3nc(N)nc(N4CCN(CCCc5ccccc5)CC4)c3n2)cc1OC [Example 149]	0.5 µM	0.3 µM	4.9 µM
COc1ccc(-c2cnc3nc(N)nc(N4CCN(CCn5cccc5)CC4)c3n2)cc1OC [Example 153]	0.2 µM	0.1 µM	2 µM
COc1ccc(-c2cnc3nc(N)nc(N4CCN(C(=O)CCc5ccccc5)CC4)c3n2)cc1OC [Example 15, 2-amino-4-[(N-hydrocinnamoyl)-piperazin-1-yl]-6-(3,4-dimethoxyphenyl)pteridine]	0.1 µM	0.01 µM	7 µM
COc1ccc(-c2cnc3nc(N)nc(N4CCN(C(=O)Nc5ccsc5)CC4)c3n2)cc1OC [Example 107, 2-amino-4-(N-3-thienylcarbamoyl-piperazin-1-yl)-6-(3,4-dimethoxyphenyl)pteridines]	0.003 µM	0.5 µM	0.8 µM
COc1ccc(-c2cnc3nc(N)nc(N4CCN(C(=O)Oc5ccccc5OC)CC4)c3n2)cc1OC [Example 93]	0.07 µM	0.05 µM	4.5 µM
COc1ccc(-c2cnc3nc(N)nc(N4CCN(c5ccc(F)cc5)CC4)c3n2)cc1OC [Example 172, 2-amino-6-(3,4-dimethoxyphenyl)-4-((4-fluorophenyl)-piperazin-1-yl)pteridine]	0.1 µM	0.05 µM	5.1 µM
COc1ccc(-c2cnc3nc(N)nc(N4CCN(C(=O)Oc5ccc(F)cc5)CC4)c3n2)cc1OC [Example 92, 2-amino-4-[(N-4-fluoro-phenoxy-carbonyl)-piperazin-1-yl]-6-(3,4-dimethoxyphenyl)pteridine]	0.05 µM	0.06 µM	8.6 µM
CCCCCOc1ccc(C(=O)N2CCN(c3nc(N)nc4ncc(-c5ccc(OC)c(OC)c5)nc34)CC2)cc1 [Example 21, 2-amino-4-[N-(4-pentoxybenzoyl)-piperazin-1-yl]-6-(3,4-dimethoxy-phenyl)pteridine]	6 µM	–	6.7 µM
COc1ccc(-c2cnc3nc(N)nc(N4CCN(C(=O)Oc5ccccc5)CC4)c3n2)cc1OC [Example 50, 2-amino-4-[(N-phenoxycarbonyl)-piperazin-1-yl]-6-(3,4-dimethoxy-phenyl)pteridine]	0.065 µM	0.02 µM	5.5 µM
COc1ccc(-c2cnc3nc(N)nc(N4CCN(CC(=O)Nc5nccs5)CC4)c3n2)cc1OC [Example 187, 2-amino-4-[2-(piperazin-1-yl)-acetic acid N-(2-thiazolyl)-amide]-6-(3,4-dimethoxyphenyl)pteridine]	0.1 µM	0.06 µM	2.4 µM
2-amino-4-((3-methoxyphenyl)-piperazin-1-yl)-6-(3,4-dimethoxyphenyl)pteridine [Example 148]	0.3 µM	0.3 µM	7.2 µM
COc1ccc(-c2cnc3nc(N)nc(N4CCN(c5cccc(C(F)(F)F)c5)CC4)c3n2)cc1OC [Example 173, 2-amino-6-(3,4-dimethoxyphenyl)-4-((3-trifluoromethylphenyl)-piperazin-1-yl)pteridine]	0.7 µM	–	4.6 µM
COc1ccc(-c2cnc3nc(N)nc(N4CCN(C(=O)c5cccc6ccccc56)CC4)c3n2)cc1OC [Example 46]	–	0.2 µM	0.8 µM
COc1ccc(-c2cnc3nc(N)nc(N4CCN(C(=O)Oc5ccc6ccccc6c5)CC4)c3n2)cc1OC [Example 98]	0.12 µM	0.08 µM	6.2 µM
COc1ccc(-c2cnc3nc(N)nc(N4CCN(CCc5ccccc5)CC4)c3n2)cc1OC [Example 159, 2-amino-4-(N-phenethylpiperazin-1-yl)-6-(3,4-dimethoxyphenyl)pteridine]	0.11 µM	0.02 µM	5.4 µM
COc1ccc(-c2cnc3nc(N)nc(N4CCN(c5ncccn5)CC4)c3n2)cc1OC [Example 147, 2-amino-4-((2-pyrimidinyl)-piperazin-1-yl)-6-(3,4-dimethoxyphenyl)pteridine]	0.2 µM	0.1 µM	4.3 µM
CCC(CC)N1CCN(c2nc(N)nc3ncc(-c4ccc(OC)c(OC)c4)nc23)CC1 [Example 166, 2-amino-6-(3,4-dimethoxyphenyl)-4-(pent-3-yl-piperazin-1-yl)pteridine]	5.3 µM	0.8 µM	4.4 µM
COc1ccc(-c2cnc3nc(N)nc(N4CCN(c5ccc(C(F)(F)F)cc5)CC4)c3n2)cc1OC [Example 180, 2-amino-6-(3,4-dimethoxyphenyl)-4-((4-trifluoromethylphenyl)-piperazin-1-yl)pteridine]	–	1.4 µM	4.4 µM
CC(=O)N1CCN(c2nc(N)nc3ncc(-c4ccc(F)cc4)nc23)CC1 [Example 57, 2-amino-4-(N-acetylpiperazin-1-yl)-6-(4-fluoro-phenyl)pteridine]	1.9 µM	–	9.5 µM
2-amino-4-((3-dichlorophenyl)-piperazin-1-yl)-6-(3,4-dimethoxyphenyl)pteridine [Example 151]	–	0.1 µM	3.7 µM
2-amino-4-(1-cyclopentylpiperazino)-6-(3,4-dimethoxyphenyl)pteridine [Example 124]	–	0.4 µM	5 µM
COc1ccc(-c2cnc3nc(N)nc(N4CCN(Cc5ccc(Cl)cc5)CC4)c3n2)cc1OC [Example 139, 2-amino-4-((4-chlorobenzyl)piperazin-1-yl)-6-(3,4-dimethoxyphenyl)pteridine]	–	0.4 µM	1.2 µM
2-amino-4-(1-isopropylpiperazino)-6-(3,4-dimethoxyphenyl)pteridine [Example 126]	4.9 µM	–	3.7 µM
2-amino-4-(1-butylpiperazino)-6-(3,4-dimethoxyphenyl)pteridine [Example 125]	0.8 µM	–	7.5 µM
